Measured values reported in patent US8765720B2, “Combination therapy for the treatment of multiple myeloma” (Cephalon, Inc., priority 2009, dated 2014).

What was measured:
[1] = system: apoptosis-inducing factor (AIF); assay: Immunohistochemical analysis of AIF expression in LAGκ-1B tumors; assay type: in vivo, SCID mice; settings: COMPOUND 1 1 mg/kg, bortezomib 0.5 mg/kg, alone or both; tumors excised post-treatment
Protocol: LAGκ-1B tumors were fixed in 4% paraformaldehyde and cut into 5 μm sections. Briefly, sections were blocked with Tris-buffered saline with 0.05% Tween-20 (TBST) and 3% BSA for 1 hour at room temperature and then incubated overnight with a rabbit antibody against AIF (Sigma, St. Louis, Mo.). The sections were washed three times with TBST and treated with horse radish […] anti-rabbit antibody (KPL, Gaithersburg, Md.) diluted 1:500 in TBST at room temperature for 2 hours. The slides were washed three times in TBST and placed in 3-amino-9-ethylcarbazole (AEC) buffer for 5 minutes, and color was detected using an AEC kit (Dako, Glostrup, Denmark). Staining was documented using an Olympus BX51 microscope (Olympus Imaging America Inc., Center Valley, Pa.) and analyzed by Microsuite Biological Suite program (Olympus BX51).

RPMI8226 cells = assay: Apoptotic assay by annexin V and propidium iodide staining; assay type: cell-based, human; settings: 2.5 nM for each drug, 30 hours
Protocol: To quantify apoptosis in response to drug treatment, RPMI8226 cells (5×10^5 cells per well) were incubated with vehicle or PIs at 37° C. and 5% CO2 for 30 hours. As a positive control, cells were incubated with 250 ng/mL of actinomycin D for 24 or 48 hours. Cells were then washed twice with phosphate-buffered saline, resuspended in binding buffer (100 mM HEPES/NaOH, pH 7.5 containing 1.4 M NaCl and 25 mM CaCl2), and stained with fluorescein isothiocyanate (FITC)-conjugated annexin V and with the fluorescent dye propidium iodide (PrI), according to the manufacturer's protocol (BioVision, Mountain View, Calif.). For each drug treatment, 1×10^5 gated events were recorded. Cells negative for both PI and annexin V staining were considered live; annexin V-positive, PrI-negative cells were considered early apoptotic; annexin V-positive, PrI-positive cells were considered late apoptotic. Flow cytometric analyses were performed using a Beckman Coulter FC500 cytometer with Cytomics CXP software (Beckman Coulter, Fullerton, Calif.).

LAGκ-1A tumor = assay: Intramuscular LAGκ-1A tumor xenograft model (serum hIgG, tumor volume); settings: for serum hIgG levels: 28 days of treatment; for serum hIgG levels and tumor volume vs vehicle: alone or together
Protocol: Six- to 8-week-old male severe combined immunodeficient (SCID) mice were obtained from the Jackson Laboratory (Bar Harbor, Me.) and maintained in a specific pathogen-free area in our animal resources facility. All animal studies were conducted according to protocols approved by the Institutional Animal Care and Use Committee. Animals were anesthetized with ketamine, xylazine, and isoflurane prior to surgery and were euthanized when tumors reached 2 cm in diameter.
Biopsy tissue was surgically implanted in the hind limbs of anesthetized SCID mice and passaged through succeeding generations (32).
Myeloma tumors (LAGκ-1A or LAGκ-1B) were excised from an anesthetized donor mouse, sectioned into 20 to 40 mm^3 pieces, and surgically implanted into the left superficial gluteal muscle of anesthetized naive SCID mice. Recipient mice received weekly injections of anti-asialo GM1 rabbit serum (Wako Bioproducts, Richmond, Va.) to further suppress immune activity. Mice were blindly assigned to one of the experimental groups, and treatment was initiated 7 to 21 days after tumor implantation. COMPOUND 1 was administered via oral gavage daily (0.5-5.0 mg/kg) or twice weekly (5-10 mg/kg). COMPOUND 1 was also administered twice weekly (W, F) via either IV injection (0.5-3.0 mg/kg) or oral gavage (10 mg/kg), as specified. Melphalan (1 mg/kg) was provided via weekly intraperitoneal (IP) injections (W). Bortezomib (0.5 mg/kg) was dispensed twice weekly (T, Th) via IV injection. Control treatment consisted of COMPOUND 1 diluent (3.2 mL 5% mannitol and 800 μL propylene glycol) alone.
Mice bearing MM tumors underwent weekly retro-orbital bleeds. Resulting samples were spun at 13,000 rpm for 30 minutes to isolate serum. The hIgG ELISA kit (Bethyl Laboratories, Montgomery, Tex.) was used according to the manufacturer's specifications. Absorbance at 450 nm with a reference wavelength of 550 nm was determined on a μQuant microplate spectrophotometer with KC Junior software (Bio-Tek Instruments, Winooski, Vt.). Data graphed are the mean±SEM with n=7-8 mice/group.
As a direct measurement of tumor growth, calipers were used to assess tumor volume weekly, and the formula for an ellipsoid volume was applied ( 4/3π×[width/2]^2×[length/2]).
Percent inhibition of tumor growth is represented as the tumor volume of the test drug group over the tumor volume of the untreated group (T/C). The optimal value is the minimal T/C ratio that reflects the maximal tumor growth inhibition achieved. The criterion for efficacy for the T/C ratio is ≦42%, according to National Cancer Institute (NCI) standard criteria (44).
Efficacy of drug therapy against tumors was standardized to the time (t) required for the untreated tumor to grow to a determined size based on the greatest difference in time to reach a tumor volume between the control and treatment group. This value can be represented as the growth delay (in days) between treated and control (tt−tc) (44).
Tumor growth and hIgG levels were analyzed in terms of treatment group means and standard error. Student's t-test was applied to determine the statistical significance of differences between treatment groups. Minimal significance level was P<0.05.

MM1S cells = assay: Cell viability assay (MTS assay), MM1S cells; assay type: cell-based, human; settings: 48 hours
Protocol: In vitro synergy between COMPOUND 1 and bortezomib or melphalan was assessed using the median effect method of Chou and Talalay (30). Combination indices (CIs) were calculated separately for each combination. […] CIs between 0.9 and 1.1 were considered to indicate additive drug effects (31).

LAGλ-1 = LAGλ-1 MM tumor model; assay type: in vivo; settings: COMPOUND 1 monotherapy

CC(C)C[C@H](NC(=O)[C@@H](NC(=O)c1cccc(-c2ccccc2)n1)[C@@H](C)O)B(O)O [COMPOUND 1, [(1R)-1-[[(2S,3R)-3-hydroxy-2-[6-phenyl-pyridine-2-carbonyl)amino]-1-oxobutyl]amino]-3-methylbutylboronic acid]
AIF expression vs vehicle-treated tumors [1]: elevated AIF expression
proportion of cells in early apoptosis (PrI−/Annexin V+) (RPMI8226 cells): 10.4 % of cells
serum hIgG levels (LAGκ-1A tumor; 1 mg/kg and 3 mg/kg IV twice weekly, P=0.0001 / P=0.0002 vs control): essentially undetectable
serum hIgG levels and tumor volume vs vehicle (LAGκ-1A tumor; COMPOUND 1 1 mg/kg IV, bortezomib 0.5 mg/kg IV, twice weekly): only partially inhibited
reduction in the volume of tumors vs control (LAGκ-1A tumor; IV 1 or 3 mg/kg twice weekly, after 4 weeks, P=0.0001): approximately 15 fold
serum hIgG levels and tumor volume vs vehicle (LAGκ-1A tumor; melphalan 1 mg/kg IP weekly, COMPOUND 1 1 mg/kg IV twice weekly, 3 weeks): nonsignificant decrease
delay of tumor volume growth to 87.5 mm^3 (LAGκ-1A tumor; mouse, in vivo, po, 5 mg/kg): 53 days
tumor inhibition (hIgG, tumor volume) (LAGκ-1A tumor; mouse, in vivo, po, 5 mg/kg): significant tumor inhibition
mice died of drug-related toxicity (LAGκ-1A tumor; oral 5 mg/kg daily): Two of fifteen
delay of tumor volume growth to 87.5 mm^3 (LAGκ-1A tumor; oral 5 mg/kg daily, vs untreated control): 530%
mice surviving five weeks of dosing and three week follow-up (LAGκ-1A tumor; oral 10 mg/kg twice weekly): 15/15
Percentage T/C (LAGκ-1A tumor; oral 10 mg/kg twice weekly, day 21): 29.3%
Percentage T/C (LAGκ-1A tumor; oral 10 mg/kg twice weekly, day 28): 17.3%
delay of tumor volume growth to 700 mm^3 (LAGκ-1A tumor; oral 10 mg/kg twice weekly, day 32.5 control vs day 63): 30.5 days
Percentage T/C (LAGκ-1A tumor; oral 10 mg/kg twice weekly, day 35): 6.1%
Percentage T/C (LAGκ-1A tumor; oral 10 mg/kg twice weekly, day 42): 6.1%
Percentage T/C (LAGκ-1A tumor; oral 10 mg/kg twice weekly, day 49): 10.6%
human paraprotein secretion and tumor volume (LAGκ-1A tumor; oral 10 mg/kg twice weekly, three weeks (day 28), hIgG P=0.0011, tumor volume P=0.001): significant inhibition of both human paraprotein secretion and reduction of tumor volume
delay of tumor volume growth to 700 mm^3 (LAGκ-1A tumor; oral 10 mg/kg twice weekly, vs no treatment): 93.8%
tumor volume vs control-treated tumors (LAGκ-1A tumor; oral (10 mg/kg twice weekly), 14 days of treatment, P=0.0002): marked reduction in tumor volume
serum hIgG levels (LAGκ-1A tumor; oral (10 mg/kg twice weekly), P=0.0001): negligible
serum hIgG levels vs control-treated animals (LAGκ-1A tumor; oral (10 mg/kg twice weekly), within 2 weeks of treatment, P=0.0007): significantly lower
anti-myeloma activity (human IgG levels and tumor volumes) (LAGκ-1A tumor; oral, daily, 3 mg/kg): moderate anti-myeloma activity
paraprotein secretion from tumors (LAGκ-1A tumor; single-agent IV twice weekly, escalating doses): dose-dependent decrease in paraprotein secretion
inhibition of viability (MM1S cells; COMPOUND 1 0.1-10 nM): concentration-dependent inhibition of viability
cytotoxicity at 0.00175 µM (MM1S cells; Homo sapiens, MM1.S, single-agent COMPOUND 1 1.75 nM, read-out: inhibition of cell viability): ~16%
Ig levels and tumor volumes (LAGλ-1): statistically significant reduction
